pIC50: −log10 of the molar value.
Target: Autotaxin (Homo sapiens, UniProt Q13822)
Assay: Human ATX Enzyme Inhibition Assay: ATX inhibition was measured by a fluorescence quenching assay using a specifically labeled substrate analogue (MR121 substrate). To obtain this MR121 substrate, BOC and TBS protected 6-amino-hexanoic acid (R)-3-({2-[3-(2-{2-[2-(2-amino-ethoxy)-ethoxy]-ethoxy}-ethoxy)-propionylamino]-ethoxy}-hydroxy-phosphoryloxy)-2-hydroxy-propyl ester (Ferguson et al., Org. Lett. 2006, 8, 2023) was labeled with MR121 fluorophore [CAS RN 185308-24-1], 1-(3-carboxypropyl)-11-ethyl-1,2,3,4,8,9,10,11-octahydro-dipyrido[3,2-b:2′,3′-i]phenoxazin-13-ium) on the free amine of the ethanolamine side and then, after deprotection, subsequently with tryptophan on the side of the aminohexanoic acid.Assay working solutions were made as follows:Assay buffer (50 mM Tris-HCl, 140 mM NaCl, 5 mM KCl, 1 mM CaCl2, 1 mM MgCl2, 0.01% Triton-X-100, pH 8.0;ATX solution: ATX (human His-tagged) stock solution (1.08 mg/mL in 20 mM bicine, pH 8.5, 0.15 M NaCl, 10% glycerol, 0.3% CHAPS, 0.02% NaN3), diluted to 1.4-2.5× final concentration in assay buffer;MR121 substrate solution: MR121 substrate stock solution (800 μM MR121 substrate in DMSO), diluted to 2-5× final concentration in assay buffer.Test compounds (10 mM stock in DMSO, 8 μL) were obtained in 384 well sample plates (Corning Costar #3655) and diluted with 8 μL DMSO. […]

**Q.** With `CC(=O)N1CCCN(c2ccc3ncn(CC(=O)NCc4ccc(Cl)c(Cl)c4)c(=O)c3c2)CC1` as the compound, how does the pIC50 read?
**A.** The pIC50 was 7.46.

— ChEMBL document CHEMBL5727805, “Bicyclic quinazolinone derivatives” (2020)
